This is an account of results in US8088930B2, “Benzimidazole derivatives” (Hoffmann-La Roche Inc., priority 2008, dated 2012).

This assay concerns the target T1, FXR ligand binding domain (GST-FXR LBD fusion protein, human FXR aa 193-473) (Homo sapiens, UniProt Q96RI1).
T1 construct: fused on or other part: Glutathione-S-transferase (GST) fused N-terminally to the FXR LBD, used to capture the protein on glutathione SPA beads
T1 sequence (Q96RI1 211-486 limits assumed): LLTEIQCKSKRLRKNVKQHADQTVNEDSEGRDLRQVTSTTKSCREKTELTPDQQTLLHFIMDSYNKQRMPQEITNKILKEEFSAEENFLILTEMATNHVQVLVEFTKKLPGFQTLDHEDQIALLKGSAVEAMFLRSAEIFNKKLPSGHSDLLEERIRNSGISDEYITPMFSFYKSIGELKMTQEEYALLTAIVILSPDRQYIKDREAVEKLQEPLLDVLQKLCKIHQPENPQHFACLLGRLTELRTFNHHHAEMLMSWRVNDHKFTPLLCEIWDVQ
The assay can be described thus: Radioligand binding assay (scintillation proximity, radioligand displacement). The conditions noted are these: 40 nM GST-FXR LBD on SPA beads, test compound 6×10^−9 M to 2.5×10^−5 M, read-out: h-IC50 Binding. The procedure, abridged:
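40 nM GST-FXR LBD, E. coli-expressed, bound to glutathione yttrium silicate SPA beads in 50 mM Hepes pH 7.4, 10 mM NaCl, 5 mM MgCl2, 0.01% CHAPS. Test compounds displace radioligand (e.g. 20 nM benzimidazolyl-acetamide ligand); bound ligand measured by scintillation proximity counting.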
In general terms: SPA uses beads or plates that emit light when radiolabelled molecules are held near them.
One may read the IC50 as the concentration needed to halve the response being measured. Turning to `O=C(O)c1cccc(OCC(C2CCCCC2)n2c(-c3ccc(Cl)cc3)nc3cc(F)c(F)cc32)c1` (stereo not drawn) [Example 15, 3-{2-[2-(4-Chloro-phenyl)-5,6-difluoro-benzoimidazol-1-yl]-2-cyclohexyl-ethoxy}-benzoic acid], the IC50 turned out to be 70 nM. As for `Cc1ccc(C(=O)O)cc1OCC(C1CCCCC1)n1c(-c2ccc(Cl)cc2)nc2cc(F)c(F)cc21` (stereo not drawn) [Example 16, 3-{2-[2-(4-Chloro-phenyl)-5,6-difluoro-benzoimidazol-1-yl]-2-cyclohexyl-ethoxy}-4-methyl-benzoic acid], the figure is 200 nM.

For the compound `Cc1c(OCC(C2CCCCC2)n2c(-c3ccc(Cl)cc3)nc3cc(F)c(F)cc32)cccc1C(=O)O` (stereo not drawn) [Example 17, 3-{2-[2-(4-Chloro-phenyl)-5,6-difluoro-benzoimidazol-1-yl]-2-cyclohexyl-ethoxy}-2-methyl-benzoic acid], the IC50 came to 200 nM.

In the case of `O=C(O)c1ccc(OCC(C2CCCCC2)n2c(-c3ccc(Cl)cc3)nc3cc(F)c(F)cc32)cn1` (stereo not drawn) [Example 18, 5-{2-[2-(4-Chloro-phenyl)-5,6-difluoro-benzoimidazol-1-yl]-2-cyclohexyl-ethoxy}-pyridine-2-carboxylic acid], the IC50 was determined as 1300 nM.

For `O=C(O)c1ccc(OCC(C2CCCCC2)n2c(-c3ccc(Cl)cc3)nc3cc(F)c(F)cc32)nc1` (stereo not drawn) [Example 19, 6-{2-[2-(4-Chloro-phenyl)-5,6-difluoro-benzoimidazol-1-yl]-2-cyclohexyl-ethoxy}-nicotinic acid], the IC50 was determined as 50 nM.

Consider `O=C(O)c1cnc(OCC(C2CCCCC2)n2c(-c3ccc(Cl)cc3)nc3cc(F)c(F)cc32)c(Cl)c1` (stereo not drawn) [Example 22, 5-Chloro-6-{2-[2-(4-chloro-phenyl)-5,6-difluoro-benzoimidazol-1-yl]-2-cyclohexyl-ethoxy}-nicotinic acid], for which the IC50 is 30 nM. With `Cc1nc(C(=O)O)ncc1OCC(C1CCCCC1)n1c(-c2ccc(Cl)cc2)nc2cc(F)c(F)cc21` (stereo not drawn) [Example 25, 5-{2-[2-(4-Chloro-phenyl)-5,6-difluoro-benzoimidazol-1-yl]-2-cyclohexyl-ethoxy}-4-methyl-pyrimidine-2-carboxylic acid] the figure was 800 nM. With `O=C(O)c1cnc(OCC(C2CCCCC2)n2c(-c3ccc(Cl)cc3)nc3cc(F)c(F)cc32)c2ccsc12` (stereo not drawn) [Example 26, 4-{2-[2-(4-Chloro-phenyl)-5,6-difluoro-benzoimidazol-1-yl]-2-cyclohexyl-ethoxy}-thieno[3,2-c]pyridine-7-carboxylic acid] the figure was 20 nM.

`Fc1cc2nc(-c3ccc(Cl)cc3)n(C(COc3ccccn3)C3CCCCC3)c2cc1F` (stereo not drawn) [Example 29, 2-(4-Chloro-phenyl)-1-[1-cyclohexyl-2-(pyridin-2-yloxy)-ethyl]-5,6-difluoro-1H-benzoimidazole]: the IC50 is 200 nM. As for `O=C(O)c1cccc(OCC(C2CCCCC2)n2c(-c3ccc(Cl)cc3)nc3cc(F)c(F)cc32)n1` (stereo not drawn) [Example 30, 6-{2-[2-(4-Chloro-phenyl)-5,6-difluoro-benzoimidazol-1-yl]-2-cyclohexyl-ethoxy}-pyridine-2-carboxylic acid], the figure is 500 nM. In the case of `COc1cc(C(=O)O)cc(OCC(C2CCCCC2)n2c(-c3ccc(Cl)cc3)nc3cc(F)c(F)cc32)n1` (stereo not drawn) [Example 31, 2-{2-[2-(4-Chloro-phenyl)-5,6-difluoro-benzoimidazol-1-yl]-2-cyclohexyl-ethoxy}-6-methoxy-isonicotinic acid], the IC50 is 600 nM. With `O=C(O)c1ccc(OCC(C2CCCCC2)n2c(-c3ccc(Cl)cc3)nc3ccccc32)cc1` (stereo not drawn) [Example 32, 4-{2-[2-(4-Chloro-phenyl)-benzoimidazol-1-yl]-2-cyclohexyl-ethoxy}-benzoic acid] the figure was 1000 nM. `O=C(O)c1ccc(OCC(C2CCCCC2)n2c(-c3ccc(Cl)cc3)nc3ccccc32)c(F)c1` (stereo not drawn) [Example 33, 4-{2-[2-(4-Chloro-phenyl)-benzoimidazol-1-yl]-2-cyclohexyl-ethoxy}-3-fluoro-benzoic acid]: the IC50 came out at 500 nM.

As to `Fc1cc2nc(-c3ccc(Cl)cc3)n(C(COc3ccccc3F)C3CCCCC3)c2cc1F` (stereo not drawn) [Example 34, 2-(4-Chloro-phenyl)-1-[1-cyclohexyl-2-(2-fluoro-phenoxy)-ethyl]-5,6-difluoro-1H-benzoimidazole], the IC50 was 40 nM. Turning to `Fc1cc2nc(-c3ccc(Cl)cc3)n(C(COc3cccnc3)C3CCCCC3)c2cc1F` (stereo not drawn) [Example 35, 2-(4-Chloro-phenyl)-1-[1-cyclohexyl-2-(pyridin-3-yloxy)-ethyl]-5,6-difluoro-1H-benzoimidazole], the IC50 is 200 nM. With `Fc1cc2nc(-c3ccc(Cl)cc3)n(C(COc3ccncc3)C3CCCCC3)c2cc1F` (stereo not drawn) [Example 36, 2-(4-Chloro-phenyl)-1-[1-cyclohexyl-2-(pyridin-4-yloxy)-ethyl]-5,6-difluoro-1H-benzoimidazole] the figure was 90 nM. With `O=C(O)c1ccnc(OCC(C2CCCCC2)n2c(-c3ccc(Cl)cc3)nc3cc(F)c(F)cc32)c1` (stereo not drawn) [Example 37, 2-{2-[2-(4-Chloro-phenyl)-5,6-difluoro-benzoimidazol-1-yl]-2-cyclohexyl-ethoxy}-isonicotinic acid] the figure was 400 nM; with `Fc1cc2nc(-c3ccc(Cl)cc3)n(C(COc3ccccc3)C3CCCCC3)c2cc1F` (stereo not drawn) [Example 38, 2-(4-Chloro-phenyl)-1-(1-cyclohexyl-2-phenoxy-ethyl)-5,6-difluoro-1H-benzoimidazole], 100 nM. With `O=C(O)c1ccc(OCC(C2CCCCC2)n2c(-c3ccc(Cl)cc3)nc3cc(F)c(F)cc32)c(C(F)(F)F)c1` (stereo not drawn) [Example 39, 4-{2-[2-(4-Chloro-phenyl)-5,6-difluoro-benzoimidazol-1-yl]-2-cyclohexyl-ethoxy}-3-trifluoromethyl-benzoic acid] the figure was 30 nM; with `O=C(O)c1c(F)cc(OCC(C2CCCCC2)n2c(-c3ccc(Cl)cc3)nc3cc(F)c(F)cc32)cc1F` (stereo not drawn) [Example 42, 4-{2-[2-(4-Chloro-phenyl)-5,6-difluoro-benzoimidazol-1-yl]-2-cyclohexyl-ethoxy}-2,6-difluoro-benzoic acid], 200 nM. On to `O=C(O)COc1ccc(OCC(C2CCCCC2)n2c(-c3ccc(Cl)cc3)nc3cc(F)c(F)cc32)nc1` (stereo not drawn) [Example 45, (6-{2-[2-(4-Chloro-phenyl)-5,6-difluoro-benzoimidazol-1-yl]-2-cyclohexyl-ethoxy}-pyridin-3-yloxy)-acetic acid], for which the IC50 came out at 20 nM. As for `COc1ccc(-c2nc3cc(F)c(F)cc3n2C(COc2ccc(C(=O)O)cc2F)C2CCCCC2)c(OC)n1` (stereo not drawn) [Example 46, 4-{2-Cyclohexyl-2-[2-(2,6-dimethoxy-pyridin-3-yl)-5,6-difluoro-benzoimidazol-1-yl]-ethoxy}-3-fluoro-benzoic acid], the figure is 100 nM; as for `O=C(O)C1(Oc2ccc(OCC(C3CCCCC3)n3c(-c4ccc(Cl)cc4)nc4cc(F)c(F)cc43)nc2)CC1` (stereo not drawn) [Example 50, 1-(6-{2-[2-(4-Chloro-phenyl)-5,6-difluoro-benzoimidazol-1-yl]-2-cyclohexyl-ethoxy}-pyridin-3-yloxy)-cyclopropanecarboxylic acid], 100 nM. As for `Cc1cc(C(=O)O)cc(C)c1OCC(C1CCCCC1)n1c(-c2ccc(Cl)cc2)nc2cc(F)c(F)cc21` (stereo not drawn) [Example 53, 4-{2-[2-(4-Chloro-phenyl)-5,6-difluoro-benzoimidazol-1-yl]-2-cyclohexyl-ethoxy}-3,5-dimethyl-benzoic acid], the figure is 30 nM. As for `Fc1cc2nc(-c3ccc(Cl)cc3)n(C(COc3ccc(-c4nnn[nH]4)cn3)C3CCCCC3)c2cc1F` (stereo not drawn) [Example 56, 2-(4-Chloro-phenyl)-1-{1-cyclohexyl-2-[5-(1H-tetrazol-5-yl)-pyridin-2-yloxy]-ethyl}-5,6-difluoro-1H-benzoimidazole], the figure is 50 nM; as for `CC(C)(OCc1ccc(C(=O)O)cc1)C(C1CCCCC1)n1c(-c2ccc(Cl)cc2)nc2cc(F)c(F)cc21` (stereo not drawn) [Example 57, 4-{2-[2-(4-Chloro-phenyl)-5,6-difluoro-benzoimidazol-1-yl]-2-cyclohexyl-1,1-dimethyl-ethoxymethyl}-benzoic acid], 100 nM; as for `O=C(O)c1ccc(COCC(C2CCCCC2)n2c(-c3ccc(Cl)cc3)nc3cc(F)c(F)cc32)cc1` (stereo not drawn) [Example 58, 4-{2-[2-(4-Chloro-phenyl)-5,6-difluoro-benzoimidazol-1-yl]-2-cyclohexyl-ethoxymethyl}-benzoic acid], 100 nM.

Turning to `O=C(O)c1ccc(COCC(C2CCCCC2)n2c(-c3ccc(Cl)cc3)nc3cc(F)c(F)cc32)c(F)c1` (stereo not drawn) [Example 59, 4-{2-[2-(4-Chloro-phenyl)-5,6-difluoro-benzoimidazol-1-yl]-2-cyclohexyl-ethoxymethyl}-3-fluoro-benzoic], the IC50 was determined as 60 nM. With `COc1cc(C(=O)O)ccc1COCC(C1CCCCC1)n1c(-c2ccc(Cl)cc2)nc2cc(F)c(F)cc21` (stereo not drawn) [Example 60, 4-{2-[2-(4-Chloro-phenyl)-5,6-difluoro-benzoimidazol-1-yl]-2-cyclohexyl-ethoxymethyl}-3-methoxy-benzoic acid], the IC50 is 500 nM. As for `Cc1cc(OCC(C2CCCCC2)n2c(-c3ccc(Cl)cc3)nc3cc(F)c(F)cc32)cc(C)c1C(=O)O` (stereo not drawn) [Example 61, 4-{2-[2-(4-Chloro-phenyl)-5,6-difluoro-benzoimidazol-1-yl]-2-cyclohexyl-ethoxy}-2,6-dimethyl-benzoic acid], the figure is 1400 nM.
